Measurements taken from patent US20240067632A1, “WEE1 Degrading Compounds and Uses Thereof” (Bristol-Myers Squibb Company, priority 2022, published 2024).

Columns and labels:
[1] = molecular target: T1, WEE1 (Homo sapiens, UniProt P30291+Q96SW2); test: WEE1-ePL degradation assay (LentiX-WEE1-ePL-GSPT1-ND cells, InCELL Hunter luminescence, 4 h); format: cell-based; details: 293T-LentiX WEE1-ePL cells; for 293T-LentiX WEE1-ePL Degradation 4 hr (Ymin): lower limit of the fit (0 = luciferase inhibitor, Ymax = DMSO control); for DC50: read-out: 293T-LentiX WEE1-ePL Degradation 4 hr (EC50)
T1 construct: C-terminal ePL-tagged (DiscoverX, Fremont, CA) full-length WEE1 expression construct; expressed in transfected cells; host or cells: LentiX-HEK293T (Invitrogen), lentiviral transduction; co-expressing GSPT1-GN (G576N, lacking the first 158 amino acids)
Procedure, shortened: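 Degradation EC50 was fitted by a four-parameter logistic model, with the upper limit taken from DMSO wells. Luminescence was read with InCELL Hunter reagent after 30 min at room temperature, following a 4 h, 37° C exposure of 2500 cells/well. Cells were LentiX-HEK293T carrying ePL-tagged full-length WEE1, dosed in 10 points (3-fold) from 1 or 10 uM.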

[2] = tested on: MKN45 cells; test: MKN45 cell proliferation assay (Cell-Titer-Glo, 120 h); format: cell-based; details: for EC50: Homo sapiens, MKN-45, 120 h, Cell-Titer-Glo, growth inhibition, read-out: MKN45 Cell Prolif. 120 hr (EC50); for MKN45 Cell Prolif. 120 hr (Ymin-Obs): minimal percent of DMSO control observed in the concentrations tested
Procedure, shortened: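 Cells seeded at 400/well onto pre-printed 10-point half-log dilutions (top 1 or 10 uM, 0.1% DMSO final), in triplicate, and grown 120 h at 37 C. Viability by Cell-Titer-Glo luminescence, blank-subtracted and normalised to DMSO; EC50 from four-parameter logistic fit, with observed minimal % of control recorded as Ymin-obs.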

| SMILES | 293T-LentiX WEE1-ePL Degradation 4 hr (Ymin) [1] | DC50 [1] [nM] | EC50 [2] [nM] | MKN45 Cell Prolif. 120 hr (Ymin-Obs) [2] |
| --- | --- | --- | --- | --- |
| CC1(C)COCCN1c1ncc2cc(CN3CC[C@H](Oc4ccc5c(c4)CN(C4CCC(=O)NC4=O)C5=O)C3)ccc2n1 (stereo partly drawn) [3-(5-{[(3S)-1-{[2-(3,3-dimethylmorpholin-4-yl)quinazolin-6-yl]methyl}pyrrolidin-3-yl]oxy}-1-oxo-2,3-dihydro-1H-isoindol-2-yl)piperidine-2,6-dione] | 31.5 | 4.82 | 17.6 | 17.3 |
| COC1CN(c2ccc3cc(CN4CC[C@H](Oc5ccc6c(c5)CN(C5CCC(=O)NC5=O)C6=O)C4)ccc3n2)C1 (stereo partly drawn) [3-(5-{[(3S)-1-{[2-(3-methoxyazetidin-1-yl)quinolin-6-yl]methyl}pyrrolidin-3-yl]oxy}-1-oxo-2,3-dihydro-1H-isoindol-2-yl)piperidine-2,6-dione] | 36 | 2.3 | 6.82 | 11.6 |
| O=C1CCC(N2Cc3cc(O[C@H]4CCN(Cc5ccc6nc(N7CCC(F)(F)CC7)ccc6c5)C4)ccc3C2=O)C(=O)N1 (stereo partly drawn) [3-(5-{[(3S)-1-{[2-(4,4-difluoropiperidin-1-yl)quinolin-6-yl]methyl}pyrrolidin-3-yl]oxy}-1-oxo-2,3-dihydro-1H-isoindol-2-yl)piperidine-2,6-dione] | 21.62 | 38.4 | 17.9 | 17.9 |
| O=C1CCC(N2Cc3cc(O[C@H]4CCN(Cc5ccc6nc(C7(O)CCOCC7)ccc6c5)C4)ccc3C2=O)C(=O)N1 (stereo partly drawn) [3-(5-{[(3S)-1-{[2-(4-hydroxyoxan-4-yl)quinolin-6-yl]methyl}pyrrolidin-3-yl]oxy}-1-oxo-2,3-dihydro-1H-isoindol-2-yl)piperidine-2,6-dione] | 31.5 | 8.84 | 7.41 | 6.55 |

Second part, led by results:

| 293T-LentiX WEE1-ePL Degradation 4 hr (Ymin) [1] | DC50 [1] [nM] | EC50 [2] [nM] | SMILES | MKN45 Cell Prolif. 120 hr (Ymin-Obs) [2] |
| --- | --- | --- | --- | --- |
| 29.67 | 7.36 | 3.88 | CC1(C)CCN(c2ccc3cc(CN4CC[C@H](Oc5ccc6c(c5)CN(C5CCC(=O)NC5=O)C6=O)C4)ccc3n2)C1=O (stereo partly drawn) [3-(5-{[(3S)-1-{[2-(3,3-dimethyl-2-oxopyrrolidin-1-yl)quinolin-6-yl]methyl}pyrrolidin-3-yl]oxy}-1-oxo-2,3-dihydro-1H-isoindol-2-yl)piperidine-2,6-dione] | 7.37 |
| 34 | 2.84 | 2.08 | CC1(C)COCCN1c1ccc2cc(CN3CC[C@H](Oc4ccc5c(c4)CN(C4CCC(=O)NC4=O)C5=O)C3)ccc2n1 (stereo partly drawn) [3-(5-{[(3S)-1-{[2-(3,3-dimethylmorpholin-4-yl)quinolin-6-yl]methyl}pyrrolidin-3-yl]oxy}-1-oxo-2,3-dihydro-1H-isoindol-2-yl)piperidine-2,6-dione] | 9.02 |
| 34 | 14.1 | 26.8 | O=C1CCC(N2Cc3cc(O[C@H]4CCN(Cc5ccc6nc(N7CC(O)C7)ccc6c5)C4)ccc3C2=O)C(=O)N1 (stereo partly drawn) [3-(5-{[(3S)-1-{[2-(3-hydroxyazetidin-1-yl)quinolin-6-yl]methyl}pyrrolidin-3-yl]oxy}-1-oxo-2,3-dihydro-1H-isoindol-2-yl)piperidine-2,6-dione] | 13.6 |
| 31 | 1.58 | 2.77 | CC1(C)CC(=O)N(c2ccc3cc(CN4CC[C@H](Oc5ccc6c(c5)CN(C5CCC(=O)NC5=O)C6=O)C4)ccc3n2)C1 (stereo partly drawn) [3-(5-{[(3S)-1-{[2-(4,4-dimethyl-2-oxopyrrolidin-1-yl)quinolin-6-yl]methyl}pyrrolidin-3-yl]oxy}-1-oxo-2,3-dihydro-1H-isoindol-2-yl)piperidine-2,6-dione] | 8.145 |
